Measurements from ChEMBL document CHEMBL1201862, “PubChem BioAssay data set” (2004).
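Dose response: 5 concentrations. Exposure: 48 h. Format: 96-well plates. Endpoint: linear interpolation; highest concentration if not reached. At the GI50, growth is halved.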 Activity calls are given as the source filed them. No stated cut-off is given here; in the data, active = GI50 up to about 1.1 µM and inactive = higher.

How the values were obtained:
Test in all cases: growth of human tumour cells (NCI), 48 h
786-0 = tested on: 786-0
A549 = tested on: A549
BT-549 = tested on: BT-549
COLO 205 = tested on: COLO 205
HL-60 = tested on: HL-60
M14 = tested on: M14
MDA-MB-435 = tested on: MDA-MB-435
MDA-N = tested on: MDA-N
NCI/ADR-RES = tested on: NCI/ADR-RES
OVCAR-5 = tested on: OVCAR-5
PC-3 = tested on: PC-3
SF-295 = tested on: SF-295
SF-539 = tested on: SF-539
SK-MEL-2 = tested on: SK-MEL-2
SK-OV-3 = tested on: SK-OV-3
SNB-19 = tested on: SNB-19
SNB-75 = tested on: SNB-75
U-251 = tested on: U-251
UACC-62 = tested on: UACC-62
UO-31 = tested on: UO-31

Structure (SMILES) | GI50 (786-0) | GI50 (A549) | GI50 (BT-549) | GI50 (COLO 205) | GI50 (HL-60) | GI50 (M14) | GI50 (MDA-MB-435) | GI50 (MDA-N) | GI50 (NCI/ADR-RES) | GI50 (OVCAR-5) | GI50 (PC-3) | GI50 (SF-295) | GI50 (SF-539) | GI50 (SK-MEL-2) | GI50 (SK-OV-3) | GI50 (SNB-19) | GI50 (SNB-75) | GI50 (U-251) | GI50 (UACC-62) | GI50 (UO-31)
N=C(N)SCc1ccc(Cl)cc1Cl.O=[N+]([O-])c1c(O)c(Cl)cc(Cl)c1Cl | 11.7 µM (inactive) | 22.3 µM (inactive) | 16.3 µM (inactive) | 14.2 µM (inactive) | 6.04 µM (inactive) | 11.4 µM (inactive) | 6.22 µM (inactive) | 7.46 µM (inactive) | 19.5 µM (inactive) | 16.3 µM (inactive) | 11.9 µM (inactive) | 13.5 µM (inactive) | 12.9 µM (inactive) | 12.7 µM (inactive) | 17.3 µM (inactive) | 19.4 µM (inactive) | 15.1 µM (inactive) | 14.8 µM (inactive) | 14.4 µM (inactive) | 9.06 µM (inactive)
OC12COc3ccccc3C1Oc1ccccc1C2 (configuration not stated) | > 100 µM (inactive) | > 100 µM (inactive) | > 100 µM (inactive) | > 100 µM (inactive) |  | > 100 µM (inactive) | > 100 µM (inactive) | > 100 µM (inactive) | > 100 µM (inactive) | > 100 µM (inactive) | > 100 µM (inactive) | > 100 µM (inactive) | > 100 µM (inactive) | > 100 µM (inactive) | > 100 µM (inactive) |  | > 100 µM (inactive) | > 100 µM (inactive) | > 100 µM (inactive) | > 100 µM (inactive)
C/C(=N\NC(=S)Nc1ccc(C)cc1)c1nc2cccnc2[nH]1 | 1.6 µM (inactive) | 2.33 µM (inactive) | 1.23 µM (inactive) | 3.9 µM (inactive) | 2.22 µM (inactive) |  | 2.94 µM (inactive) | 4.63 µM (inactive) | 4.04 µM (inactive) | 1.95 µM (inactive) | 1.73 µM (inactive) | 3.07 µM (inactive) | 1.14 µM (inactive) | 10.8 µM (inactive) | 4.3 µM (inactive) | 3.2 µM (inactive) | 5.77 µM (inactive) | 1.45 µM (inactive) | 2.81 µM (inactive) | 0.649 µM (active)
COc1ccc(OC)c2c1C(=O)C(O)=C(Cl)C2=O | > 100 µM (inactive) | > 100 µM (inactive) | > 100 µM (inactive) | > 100 µM (inactive) | > 100 µM (inactive) | > 100 µM (inactive) | > 100 µM (inactive) | > 100 µM (inactive) | > 100 µM (inactive) | > 100 µM (inactive) | > 100 µM (inactive) | > 100 µM (inactive) | > 100 µM (inactive) | > 100 µM (inactive) | > 100 µM (inactive) | > 100 µM (inactive) | > 100 µM (inactive) | > 100 µM (inactive) | > 100 µM (inactive) | > 100 µM (inactive)
COc1ccc(N(C)S(=O)(=O)c2ccccc2)cc1 | > 100 µM (inactive) | > 100 µM (inactive) | > 100 µM (inactive) | > 100 µM (inactive) | > 100 µM (inactive) | > 100 µM (inactive) | 59.2 µM (inactive) | > 100 µM (inactive) | > 100 µM (inactive) | > 100 µM (inactive) | 72.1 µM (inactive) | > 100 µM (inactive) | > 100 µM (inactive) | > 100 µM (inactive) | > 100 µM (inactive) | > 100 µM (inactive) | > 100 µM (inactive) | > 100 µM (inactive) | 75 µM (inactive) | > 100 µM (inactive)
O=C1Nc2c(Cl)cc(Cl)cc2/C1=N/NC(=O)c1ccncc1 | 17.4 µM (inactive) | > 100 µM (inactive) | 37.8 µM (inactive) | 27.2 µM (inactive) | 9.64 µM (inactive) | 46.2 µM (inactive) | 16.5 µM (inactive) | 15.7 µM (inactive) | 23.1 µM (inactive) | 61 µM (inactive) | 15.7 µM (inactive) | 38.5 µM (inactive) | 21.6 µM (inactive) | 19 µM (inactive) | 25.6 µM (inactive) | > 100 µM (inactive) | 46.3 µM (inactive) | 18.1 µM (inactive) | 17.3 µM (inactive) | 27.9 µM (inactive)
C=CCN1C(=O)CC(=O)N(NC2=NNC3(C(=O)N2)c2ccccc2-c2ccccc23)C1=S | 38.5 µM (inactive) | 34.2 µM (inactive) | 45 µM (inactive) | 21.7 µM (inactive) | 27.9 µM (inactive) | > 100 µM (inactive) | 44.5 µM (inactive) | > 100 µM (inactive) | 25.4 µM (inactive) | 53.7 µM (inactive) | 23.9 µM (inactive) | 37 µM (inactive) | 59.4 µM (inactive) | 25.2 µM (inactive) | 42.2 µM (inactive) | 48.8 µM (inactive) | 48.2 µM (inactive) | 38 µM (inactive) | 28.5 µM (inactive) | 31.8 µM (inactive)
